Assay results as given in patent US9011853B2, “B7-H4 fusion proteins and methods of use thereof” (Amplimmune, Inc., priority 2009, dated 2015).
“And” between values parts separate entries of the source, which are not always exact repeats. Identical values can stand only once.

Test system: serum levels of 58 analytes
Test: Serum biomarker analysis, quantitative immunoassay multi-analyte profiling (Rules-Based Medicine RodentMAP v2.9), AA#80
Type: in vivo, mouse
Details: serum, individual mice; for GCP-2 (Granulocyte Chemotactic Potein-2): LDD 0.0245; for IL-17-(Interleukin-17): LDD 0.152; for GST-alpha (Glutathione S-Transferase alpha): LDD 0.42; for IL-1beta (Interleukin-1beta): LDD 0.447; for IL-12p70-(Interleukin-12p70): LDD 0.5712; for FGF-basic (Fibroblast Growth Factor-basic): LDD 0.577; for Haptoglobin: LDD 0.64; for IL-18 (Interleukin-18): LDD 0.674; for CRP (C Reactive Protein): LDD 0.83; for Factor VII: LDD 0.958; for FGF-9 (Fibroblast Growth Factor-9): LDD 0.9926; for GM-CSF (Granulocyte Macrophage-Colony Stimulating Factor): LDD 8.746; for Apo A1 (Apoilpoprotein A1): LDD 10.4; for CD40: LDD 12; for Eotaxin: LDD 12.25; for IL-3 (Interleukin-3): LDD 21.274; for EGF (Epidermal Growth Factor): LDD 39.1; for IL-1alpha (Interleukin-1alpha): LDD 44.92; for Endothelin-1: LDD 66.95; for IL-2 (Interleukin-2): LDD 67; for IFN-gamma (Interferon-gamma): LDD 67.82; for IL-4 (Interleukin-4): LDD 73.54; for IL-11 (Interleukin-11): LDD 87.38; for CD40 Ligand: LDD 92; for IL-10 (Interleukin-10): LDD 109.26; for Fibrinogen: LDD 170
Protocol: In AA#80, serum samples were collected on Day 27, Day 34, Day 41 and Day 55 via the submandibular vein. Approximately 200 μL of blood per mouse was collected in Microtainer® serum separator tubes. Serum was removed following centrifugation and stored at <−65° C. until analysis.
Selected serum samples were sent to Rules-Based Medicine (Austin, Tex.) for quantitative immunoassay multi-analyte profiling of serum samples, with the goal of identifying biomarkers that could be used to monitor disease progression and response to B7-H4-Ig treatment. Day 27, Day 34, and Day 41 sera from the three representative mice in the B7-H4-Ig group (tag #3332, 3334, and 3338) and three representative mice in the Synagis® group (tag #3324, 3329, and 3330) were analyzed for levels of 58 analytes using the RodentMAP v2.9 Testing Service.
Data from the Rules-Based Medicine analysis was analyzed using Microsoft Excel and GraphPad Prism software. T-tests were performed to compare the levels of each analyte in the B7-H4-Ig versus Synagis® treated samples. No correction was made for multiple comparisons. Additionally, correlation coefficients were calculated for each analyte versus disease score.

Substance: Human B7-H4-Ig: human B7-H4 extracellular domain fused to hinge, CH2 and CH3 regions of human immunoglobulin Cγ1 chain; representative SEQ ID NOs:114-137
- GCP-2 (Granulocyte Chemotactic Potein-2) (Day 27): 18 ng/mL and 18.5 ng/mL and 16.6 ng/mL
- IL-17-(Interleukin-17) (Day 27): <low> (2×) and 0.00451 ng/ml
- GST-alpha (Glutathione S-Transferase alpha) (Day 27): <low>
- IL-1beta (Interleukin-1beta) (Day 27): 4.36 ng/ml (2×) and 1.98 ng/ml
- IL-12p70-(Interleukin-12p70) (Day 27): 0.0532 ng/ml (2×) and <low>
- FGF-basic (Fibroblast Growth Factor-basic) (Day 27): 18.8 ng/mL and 17.8 ng/mL and 16.8 ng/mL
- Haptoglobin (Day 27): 161 µg/mL and 204 µg/mL and 123 µg/mL
- IL-18 (Interleukin-18) (Day 27): 13.3 ng/mL and 14.1 ng/mL and 11.7 ng/mL
- CRP (C Reactive Protein) (Day 27): 13.4 µg/mL and 8.16 µg/mL and 7.98 µg/mL
- Factor VII (Day 27): 33 ng/mL and 29.1 ng/mL and 26.4 ng/mL
- FGF-9 (Fibroblast Growth Factor-9) (Day 27): <low>
- GM-CSF (Granulocyte Macrophage-Colony Stimulating Factor) (Day 27): <low>
- Apo A1 (Apoilpoprotein A1) (Day 27): 57.3 µg/mL and 53.7 µg/mL and 42.7 µg/mL
- CD40 (Day 27): 135 pg/ml (2×) and 151 pg/ml
- Eotaxin (Day 27): 626 pg/mL and 613 pg/mL and 623 pg/mL
- IL-3 (Interleukin-3) (Day 27): <low>
- EGF (Epidermal Growth Factor) (Day 27): 18.4 pg/mL and 21.4 pg/mL and 20.4 pg/mL
- IL-1alpha (Interleukin-1alpha) (Day 27): 468 pg/mL and 284 pg/mL and 381 pg/mL
- Endothelin-1 (Day 27): 20.2 pg/ml (2×) and 17.1 pg/ml
- IL-2 (Interleukin-2) (Day 27): <low>
- IFN-gamma (Interferon-gamma) (Day 27): <low> (2×) and 7.14 pg/ml
- IL-4 (Interleukin-4) (Day 27): <low> and 27.9 pg/ml and 17.7 pg/ml
- IL-11 (Interleukin-11) (Day 27): <low> (2×) and 27 pg/ml
- CD40 Ligand (Day 27): 1980 pg/mL and 1550 pg/mL and 1320 pg/mL
- IL-10 (Interleukin-10) (Day 27): <low> (2×) and 94.2 pg/ml
- Fibrinogen (Day 27): <low>
- GCP-2 (Granulocyte Chemotactic Potein-2) (Day 34): 17.1 ng/mL and 18.1 ng/mL and 16.2 ng/mL
- IL-17-(Interleukin-17) (Day 34): 0.0152 ng/mL and 0.00808 ng/mL and 0.00572 ng/mL
- GST-alpha (Glutathione S-Transferase alpha) (Day 34): <low> and 4.16 ng/ml and 2.96 ng/ml
- IL-1beta (Interleukin-1beta) (Day 34): 5.12 ng/mL and 3.58 ng/mL
- IL-12p70-(Interleukin-12p70) (Day 34): 0.0725 ng/ml and <low>
- FGF-basic (Fibroblast Growth Factor-basic) (Day 34): 17.8 ng/mL
- Haptoglobin (Day 34): 281 µg/mL and 162 µg/mL and 140 µg/mL
- IL-18 (Interleukin-18) (Day 34): 11.7 ng/mL and 10.9 ng/mL and 13.1 ng/mL
- CRP (C Reactive Protein) (Day 34): 17.2 µg/mL and 8.79 µg/mL and 12.4 µg/mL
- Factor VII (Day 34): 31.7 ng/mL and 33 ng/mL and 29.1 ng/mL
- FGF-9 (Fibroblast Growth Factor-9) (Day 34): <low>
- GM-CSF (Granulocyte Macrophage-Colony Stimulating Factor) (Day 34): <low>
- Apo A1 (Apoilpoprotein A1) (Day 34): 37.8 µg/mL and 48.5 µg/mL and 54.1 µg/mL
- CD40 (Day 34): 96.7 pg/mL and 147 pg/mL and 136 pg/mL
- Eotaxin (Day 34): 630 pg/mL and 602 pg/mL and 700 pg/mL
- IL-3 (Interleukin-3) (Day 34): <low>
- EGF (Epidermal Growth Factor) (Day 34): 22.4 pg/mL and 14.3 pg/mL and 20.4 pg/mL
- IL-1alpha (Interleukin-1alpha) (Day 34): 361 pg/mL and 447 pg/mL and 587 pg/mL
- Endothelin-1 (Day 34): 22.2 pg/mL and 20.2 pg/mL
- IL-2 (Interleukin-2) (Day 34): <low>
- IFN-gamma (Interferon-gamma) (Day 34): 7.14 pg/mL and 3.58 pg/mL
- IL-4 (Interleukin-4) (Day 34): 17.7 pg/ml and <low>
- IL-11 (Interleukin-11) (Day 34): 17.1 pg/mL
- CD40 Ligand (Day 34): 1370 pg/mL and 2030 pg/mL and 2180 pg/mL
- IL-10 (Interleukin-10) (Day 34): 94.2 pg/ml and <low>
- Fibrinogen (Day 34): 136 ug/ml and <low>
- GCP-2 (Granulocyte Chemotactic Potein-2) (Day 41): 16.9 ng/mL and 16.3 ng/mL and 20.9 ng/mL
- IL-17-(Interleukin-17) (Day 41): 0.00572 ng/ml (2×) and <low>
- GST-alpha (Glutathione S-Transferase alpha) (Day 41): 1.01 ng/mL and 0.477 ng/mL and 1.64 ng/mL
- IL-1beta (Interleukin-1beta) (Day 41): 4.36 ng/ml and 5.12 ng/ml (2×)
- IL-12p70-(Interleukin-12p70) (Day 41): <low> (2×) and 0.0914 ng/ml
- FGF-basic (Fibroblast Growth Factor-basic) (Day 41): 19.9 ng/mL and 17.8 ng/mL and 18.8 ng/mL
- Haptoglobin (Day 41): 267 µg/mL and 270 µg/mL and 193 µg/mL
- IL-18 (Interleukin-18) (Day 41): 13.3 ng/mL and 11.7 ng/mL and 11.5 ng/mL
- CRP (C Reactive Protein) (Day 41): 17.1 µg/mL and 10.6 µg/mL and 12.1 µg/mL
- Factor VII (Day 41): 36.9 ng/mL and 30.4 ng/mL and 27.7 ng/mL
- FGF-9 (Fibroblast Growth Factor-9) (Day 41): <low>
- GM-CSF (Granulocyte Macrophage-Colony Stimulating Factor) (Day 41): <low>
- Apo A1 (Apoilpoprotein A1) (Day 41): 46.8 µg/mL and 49.5 µg/mL and 46 µg/mL
- CD40 (Day 41): 108 pg/mL and 105 pg/mL and 140 pg/mL
- Eotaxin (Day 41): 629 pg/mL and 493 pg/mL and 694 pg/mL
- IL-3 (Interleukin-3) (Day 41): <low>
- EGF (Epidermal Growth Factor) (Day 41): 28.4 pg/mL and 16.3 pg/mL and 18.4 pg/mL
- IL-1alpha (Interleukin-1alpha) (Day 41): 488 pg/mL and 284 pg/mL and 1950 pg/mL
- Endothelin-1 (Day 41): 21.2 pg/mL and 20.2 pg/mL and 16 pg/mL
- IL-2 (Interleukin-2) (Day 41): <low>
- IFN-gamma (Interferon-gamma) (Day 41): 3.58 pg/ml (2×) and 7.14 pg/ml
- IL-4 (Interleukin-4) (Day 41): 35.7 pg/ml and 17.7 pg/ml (2×)
- IL-11 (Interleukin-11) (Day 41): 17.1 pg/ml and <low> (2×)
- CD40 Ligand (Day 41): 1680 pg/mL and 1630 pg/mL and 1830 pg/mL
- IL-10 (Interleukin-10) (Day 41): <low>
- Fibrinogen (Day 41): <low> (2×) and 118 ug/ml
